≈ marks a conversion by molar mass, not a printed value. Like-named read-outs stand apart in the source and are kept apart here. Square brackets hold non-standard residues; d marks the D form. Peptide text beside a SMILES is read from it. Nle = CCCC[C@H](N)C(=O)O; Aib = CC(C)(N)C(=O)O

The subject of series [1] is female diabetic dbdb-mice. As to the kind of experiment: Glucose lowering in non-fasted female diabetic dbdb-mice. It is filed as in vivo. Conditions: 100 μg/kg s.c., baseline on average 29 mmol/l. How it is done:
Female diabetic dbdb-mice (BKS.Cg−+Leprdb/+Leprdb/OlaHsd) 10 weeks of age at study start were used. Mice were habituated to feeding and housing conditions for at least 2 weeks. 7 days prior to study start, HbA1c were determined to allocate mice to groups, aiming to spread low, medium and high HbA1c-values and in consequence the group-means (n=8), as equally as possible. On the day of study, food was removed, directly before sampling for baseline glucose assessment (t=0 min). Immediately afterwards, compounds or vehicle (phosphor buffered saline, PBS) were administered subcutaneously, 100 μg/kg, 10 ml/kg. Afterwards, blood samples were drawn by tail tip incision at 15, 30, 60, 90, 120, 150, 180, 240, 360, 480 min and 24 h. Food was re-offered after the 480 min-sampling.
Data were analysed by 2-W-ANOVA on repeated measurements, followed by Dunnett's test as post-hoc assessment, level of significance p<0.05.
Female dbdb-mice, received 100 μg/kg of SEQ ID NO: 8, SEQ ID NO: 9 or phosphate buffered saline (vehicle control) subcutaneously, at time 0 min.

Series [2] is described as follows: Pharmacokinetic testing in mice, plasma LC/MS. It is filed as in vivo. Conditions: mouse, sc, 1 mg/kg s.c. As for the experimental part: Mice were dosed 1 mg/kg subcutaneously (s.c.). The mice were sacrified and blood samples were collected after 0.25, 0.5, 1, 2, 4, 8, 16 and 24 hours post application. Plasma samples were analyzed after protein precipitation via liquid chromatography mass spectrometry (LC/MS). PK parameters and half-life were calculated using WinonLin Version 5.2.1 (non-compartment model).
Pharmacokinetic profiles were determined as described in Methods.

A short description of series [3]: Solubility testing in buffer systems, HPLC-UV of supernatant. It is filed as physicochemical. To be noted: buffer system. As for the experimental part:
Prior to the testing of solubility and stability of a peptide batch, its content was determined. Therefore, two parameters were investigated, its purity (HPLC-UV) and the amount of salt load of the batch (ion chromatography).
Therefore, solutions from solid samples were prepared in different buffer systems with a concentration of 1.0 mg/mL compound based on the previously determined content. HPLC-UV was performed after 2 h of gentle agitation from the supernatant, which was obtained by 20 min of centrifugation at 4000 rpm.
This analysis also served as starting point (t0) for the stability testing.
(§1) As HPLC/UPLC method, method D or E has been used.

The target in series [4] is T1, human glucagon receptor (hGLUC R) (Homo sapiens, UniProt P47871).
T1 construct: expressed in transfected cells
As to the kind of experiment: cAMP response of HEK-293 cells stably expressing human glucagon receptor (HTRF). Conditions: Table 6; cAMP formation. It is filed as cell-based. As for the experimental part: cAMP content of cells was determined using a kit from Cisbio Corp. (cat. no. 62AM4PEC) based on HTRF (Homogenous Time Resolved Fluorescence). For preparation, cells were split into T175 culture flasks and grown overnight to near confluency in medium (DMEM/10% FBS). Medium was then removed and cells washed with PBS lacking calcium and magnesium, followed by proteinase treatment with accutase (Sigma-Aldrich cat. no. A6964). Detached cells were washed and resuspended in assay buffer (1×HBSS; 20 mM HEPES, 0.1% BSA, 2 mM IBMX) and cellular density determined. They were then diluted to 400000 cells/ml and 25 μl-aliquots dispensed into the wells of 96-well plates. For measurement, 25 μl of test compound in assay buffer was added to the wells, followed by incubation for 30 minutes at room temperature.

Series [5] is classed as physicochemical. Conditions: buffer, 168 h. As for the experimental part: After that time course, the sample was centrifuged for 20 min at 4000 rpm and the supernatant was analysed with HPLC-UV.
For determination of the amount of the remaining peptide, the peak areas of the target compound at t0 and t7 were compared, resulting in “% remaining peptide”, following the equation % remaining peptide=[(peak area peptide t7)×100]/peak area peptide t0.
The chemical stability is expressed as “% remaining peptide”.
as §1

Where [6] appears, read: pH 4.5, target concentration 1.0 mg/mL, read-out: Solubility (pH 4.5).
The mark [7] stands for this setting: pH 7.4, target concentration 1.0 mg/mL, read-out: Solubility (pH 7.4).

T1 sequence (P47871 26-477): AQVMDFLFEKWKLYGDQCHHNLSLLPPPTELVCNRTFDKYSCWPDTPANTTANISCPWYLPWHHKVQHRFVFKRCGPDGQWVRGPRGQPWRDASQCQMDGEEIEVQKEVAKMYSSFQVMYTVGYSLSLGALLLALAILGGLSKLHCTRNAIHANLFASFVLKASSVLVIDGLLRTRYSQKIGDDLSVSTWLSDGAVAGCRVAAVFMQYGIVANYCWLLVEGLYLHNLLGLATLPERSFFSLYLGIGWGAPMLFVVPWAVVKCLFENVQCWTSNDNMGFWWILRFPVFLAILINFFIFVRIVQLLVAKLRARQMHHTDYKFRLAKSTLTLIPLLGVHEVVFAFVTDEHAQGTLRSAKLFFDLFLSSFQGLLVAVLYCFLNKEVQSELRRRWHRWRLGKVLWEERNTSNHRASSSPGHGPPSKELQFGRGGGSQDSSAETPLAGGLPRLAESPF

Turning to `CC[C@H](C)[C@H](NC(=O)[C@H](CO)NC(=O)[C@H](CC(C)C)NC(=O)[C@H](CC(=O)O)NC(=O)[C@H](CO)NC(=O)[C@@H](NC(=O)[C@H](Cc1ccccc1)NC(=O)[C@@H](NC(=O)CNC(=O)[C@H](CCC(=O)O)NC(=O)C(C)(C)NC(=O)[C@@H](N)Cc1ccc(O)cc1)[C@@H](C)O)[C@@H](C)O)C(=O)N[C@@H](CCC(N)=O)C(=O)N[C@@H](CCSC)C(=O)N[C@@H](CCC(=O)O)C(=O)N[C@@H](CCCCN)C(=O)N[C@@H](CCCNC(=N)N)C(=O)N[C@@H](C)C(=O)N[C@@H](C)C(=O)NC(C)(C)C(=O)N[C@@H](CCC(=O)O)C(=O)N[C@@H](Cc1ccccc1)C(=O)N[C@H](C(=O)N[C@@H](CCC(=O)O)C(=O)N[C@@H](Cc1c[nH]c2ccccc12)C(=O)N[C@@H](CC(C)C)C(=O)N[C@@H](CCCCN)C(=O)N[C@@H](C)C(=O)NCC(=O)NCC(=O)N1CCC[C@H]1C(=O)N[C@@H](CO)C(=O)N[C@@H](CO)C(=O)NCC(=O)N[C@@H](C)C(=O)N1CCC[C@H]1C(=O)N1CCC[C@H]1C(=O)N1CCC[C@H]1C(=O)N[C@@H](CO)C(N)=O)[C@@H](C)CC` [SEQ ID NO: 8, Y-Aib-E-G-T-F-T-S-D-L-S-I-Q-M-E-K-R-A-A-Aib-E-F-I-E-W-L-K-A-G-G-P-S-S-G-A-P-P-P-S-NH2] (H-Y[Aib]EGTFTSDLSIQMEKRAA[Aib]EFIEWLKAGGPSSGAPPPS-NH2), in series [1], the “maximal effect, glucose reduction” value is ~12 mmol/L. In series [2], the peak level (Cmax) was 734 ng/mL and the half-life is 18 min. In series [3] (setting [6]), the solubility at 2 h is > 1000 µg/mL. For the same molecule, the solubility at 2 h in series [3] (setting [7]) was > 1000 µg/mL. Moreover, the EC50 in series [4] was > 1000 nM. In addition, in series [5], the “Stability (pH 4.5), % remaining peptide” value amounted to 99% and the “Stability (pH 7.4), % remaining peptide” value was found to be 92%.
As for `CC[C@H](C)[C@H](NC(=O)[C@H](CO)NC(=O)[C@H](CC(C)C)NC(=O)[C@H](CC(=O)O)NC(=O)[C@H](CO)NC(=O)[C@@H](NC(=O)[C@H](Cc1ccccc1)NC(=O)[C@@H](NC(=O)CNC(=O)[C@H](CCC(=O)O)NC(=O)C(C)(C)NC(=O)[C@@H](N)Cc1ccc(O)cc1)[C@@H](C)O)[C@@H](C)O)C(=O)N[C@@H](CCC(N)=O)C(=O)N[C@@H](CC(C)C)C(=O)N[C@@H](CCC(=O)O)C(=O)N[C@@H](CCCCN)C(=O)N[C@@H](CCCNC(=N)N)C(=O)N[C@@H](C)C(=O)N[C@@H](C)C(=O)NC(C)(C)C(=O)N[C@@H](CCC(=O)O)C(=O)N[C@@H](Cc1ccccc1)C(=O)N[C@H](C(=O)N[C@@H](CCC(=O)O)C(=O)N[C@@H](Cc1c[nH]c2ccccc12)C(=O)N[C@@H](CC(C)C)C(=O)N[C@@H](CCCCN)C(=O)N[C@@H](C)C(=O)NCC(=O)NCC(=O)N1CCC[C@H]1C(=O)N[C@@H](CO)C(=O)N[C@@H](CO)C(=O)NCC(=O)N[C@@H](C)C(=O)N1CCC[C@H]1C(=O)N1CCC[C@H]1C(=O)N1CCC[C@H]1C(=O)N[C@@H](CO)C(N)=O)[C@@H](C)CC` [SEQ ID NO: 9, Y-Aib-E-G-T-F-T-S-D-L-S-I-Q-L-E-K-R-A-A-Aib-EFIEWLKAGGPSSGAPPPSN H2] (H-Y[Aib]EGTFTSDLSIQLEKRAA[Aib]EFIEWLKAGGPSSGAPPPS-NH2), the “maximal effect, glucose reduction” value in series [1] is ~16 mmol/L. Also, in series [3] (setting [6]), the solubility at 2 h amounted to 875 µg/mL (≈ 213 µM). For the same molecule, the solubility at 2 h in series [3] (setting [7]) came out at 892 µg/mL (≈ 217 µM). Moreover, in series [5], the “Stability (pH 4.5), % remaining peptide” value was found to be 100% and the “Stability (pH 7.4), % remaining peptide” value turned out to be 100%.
On to `CCCC[C@H](NC(=O)[C@H](CCC(N)=O)NC(=O)[C@@H](NC(=O)[C@H](CO)NC(=O)[C@H](CC(C)C)NC(=O)[C@H](CC(=O)O)NC(=O)[C@H](CO)NC(=O)[C@@H](NC(=O)[C@H](Cc1ccccc1)NC(=O)[C@@H](NC(=O)CNC(=O)[C@H](CCC(=O)O)NC(=O)C(C)(C)NC(=O)[C@@H](N)Cc1ccc(O)cc1)[C@@H](C)O)[C@@H](C)O)[C@@H](C)CC)C(=O)N[C@@H](CCC(=O)O)C(=O)N[C@@H](CCCCN)C(=O)N[C@@H](CCCNC(=N)N)C(=O)N[C@@H](C)C(=O)N[C@@H](C)C(=O)NC(C)(C)C(=O)N[C@@H](CCC(=O)O)C(=O)N[C@@H](Cc1ccccc1)C(=O)N[C@H](C(=O)N[C@@H](CCC(=O)O)C(=O)N[C@@H](Cc1c[nH]c2ccccc12)C(=O)N[C@@H](CC(C)C)C(=O)N[C@@H](CCCCN)C(=O)N[C@@H](C)C(=O)NCC(=O)NCC(=O)N1CCC[C@H]1C(=O)N[C@@H](CO)C(=O)N[C@@H](CO)C(=O)NCC(=O)N[C@@H](C)C(=O)N1CCC[C@H]1C(=O)N1CCC[C@H]1C(=O)N1CCC[C@H]1C(=O)N[C@@H](CO)C(N)=O)[C@@H](C)CC` [SEQ ID NO: 10, Y-Aib-E-G-T-F-T-S-D-L-S-I-Q-Nle-E-K-R-A-A-Aib-E-F-I-E-W-L-K-A-G-G-P-S-S-G-A-P-P-P-S-NH2] (H-Y[Aib]EGTFTSDLSIQ[Nle]EKRAA[Aib]EFIEWLKAGGPSSGAPPPS-NH2), for which the solubility at 2 h in series [3] (setting [6]) turned out to be 960 µg/mL (≈ 234 µM). Moreover, the solubility at 2 h in series [3] (setting [7]) was > 1000 µg/mL. In series [5], the “Stability (pH 4.5), % remaining peptide” value stood at 100% and the “Stability (pH 7.4), % remaining peptide” value is recorded as 100%.

The values above are taken from patent US9789165B2 (Sanofi, priority 2013, dated 2017).
